Activity calls are given as the source filed them.
Columns and labels:
Nonstructural protein 1 = Nonstructural protein 1 (Influenza A virus, UniProt Q194T2); type: functional, Influenza A virus (A/California/07/2009(H1N1))
Albumin = Albumin (Bos taurus, UniProt P02769); assay: Counterscreen for inhibitors of T-cell receptor (TCR)-CD3 interaction: Fluorescence-based biochemical high throughput dose response assay to identify inhibitors of T-cell receptor (TCR)-CD3 interaction using a TAMRA-labeled BSA probe.; type: functional
Sequence of Albumin (P02769 whole entry, the tested form may be a part): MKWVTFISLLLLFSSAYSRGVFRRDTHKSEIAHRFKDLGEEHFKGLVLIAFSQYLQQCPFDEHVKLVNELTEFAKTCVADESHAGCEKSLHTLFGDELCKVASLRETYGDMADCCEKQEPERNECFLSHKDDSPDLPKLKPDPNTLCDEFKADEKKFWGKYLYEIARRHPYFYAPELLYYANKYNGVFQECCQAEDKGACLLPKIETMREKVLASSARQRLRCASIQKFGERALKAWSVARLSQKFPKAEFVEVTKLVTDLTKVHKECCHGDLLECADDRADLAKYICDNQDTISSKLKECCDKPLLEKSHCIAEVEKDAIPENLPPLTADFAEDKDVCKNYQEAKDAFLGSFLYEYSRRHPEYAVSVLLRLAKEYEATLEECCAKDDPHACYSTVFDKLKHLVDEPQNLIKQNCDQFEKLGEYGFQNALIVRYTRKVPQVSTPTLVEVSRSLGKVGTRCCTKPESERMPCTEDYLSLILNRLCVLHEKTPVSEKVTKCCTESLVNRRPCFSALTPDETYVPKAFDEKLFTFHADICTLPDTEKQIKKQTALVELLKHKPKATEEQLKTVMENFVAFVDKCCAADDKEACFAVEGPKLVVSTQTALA

[1] = molecular target: T1, Oxysterols receptor LXR-beta (Homo sapiens, UniProt P55055); type: functional, cell-based;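 also: agonist activity at LXR measured by a cell-based luminescence readout across a dose range, run as a counterscreen for daf-12 agonists; HEK293 cells with Gal4-LXR fusion and GAL4-driven luciferase reporter; potency for activation of Gal4-LXR reporter so compounds are agonists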
T1 sequence (P55055 whole entry): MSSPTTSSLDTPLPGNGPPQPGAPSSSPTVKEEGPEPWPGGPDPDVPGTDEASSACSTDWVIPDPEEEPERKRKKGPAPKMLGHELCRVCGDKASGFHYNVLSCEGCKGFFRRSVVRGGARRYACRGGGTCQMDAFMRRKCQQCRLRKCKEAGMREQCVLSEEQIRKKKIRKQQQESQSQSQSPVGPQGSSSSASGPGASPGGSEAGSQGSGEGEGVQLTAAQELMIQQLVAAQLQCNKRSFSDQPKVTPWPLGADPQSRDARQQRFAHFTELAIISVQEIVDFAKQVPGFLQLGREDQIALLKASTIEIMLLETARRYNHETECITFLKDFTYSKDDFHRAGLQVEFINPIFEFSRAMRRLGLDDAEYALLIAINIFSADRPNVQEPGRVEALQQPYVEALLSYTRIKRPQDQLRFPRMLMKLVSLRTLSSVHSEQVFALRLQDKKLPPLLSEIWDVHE

Beta-lactamase [2] = molecular target: Beta-lactamase (Salmonella choleraesuis (strain SC-B67), UniProt Q5J463); assay: Epi-absorbance-based counterscreen for selective VIM-2 inhibitors: dose response biochemical high throughput screening assay to identify inhibitors of TEM-1 serine-beta-lactamase.
Sequence of Beta-lactamase (Salmonella choleraesuis (strain SC-B67), UniProt Q5J463) (Q5J463 whole entry): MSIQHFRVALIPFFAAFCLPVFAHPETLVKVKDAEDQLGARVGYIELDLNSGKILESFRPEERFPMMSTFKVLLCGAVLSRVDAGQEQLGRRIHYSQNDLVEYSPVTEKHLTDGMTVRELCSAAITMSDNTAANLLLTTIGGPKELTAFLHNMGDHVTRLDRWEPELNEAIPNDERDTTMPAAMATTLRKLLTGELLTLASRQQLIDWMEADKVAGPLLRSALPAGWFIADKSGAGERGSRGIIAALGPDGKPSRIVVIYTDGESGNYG

Beta-lactamase [3] = molecular target: T2, Beta-lactamase (Pseudomonas aeruginosa, UniProt Q79MP6); assay: IMP-1 metallo-beta-lactamase inhibitors, dose response, selectivity assay for VIM-2 inhibitor project, biochemical, epi-absorbance (AID 1920)
T2 sequence (Q79MP6 whole entry): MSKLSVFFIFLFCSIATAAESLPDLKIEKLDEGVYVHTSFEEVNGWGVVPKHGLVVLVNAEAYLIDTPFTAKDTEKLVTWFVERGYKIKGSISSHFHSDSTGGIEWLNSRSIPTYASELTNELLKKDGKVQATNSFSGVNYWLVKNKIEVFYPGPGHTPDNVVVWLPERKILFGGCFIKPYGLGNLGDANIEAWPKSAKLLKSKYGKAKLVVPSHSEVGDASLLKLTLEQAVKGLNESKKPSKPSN

Beta-lactamase [4] = molecular target: T2, Beta-lactamase; assay: […] counterscreen for selective VIM-2 inhibitors: dose response biochemical high throughput screening assay to identify inhibitors of IMP-1 metallo-beta-lactamase.
[5] = molecular target: Dual specificity tyrosine-phosphorylation-regulated kinase 1A (Rattus norvegicus, UniProt Q63470); type: biochemical, Homo sapiens
Caspase-3 = molecular target: T3, Caspase-3 (Homo sapiens, UniProt P42574); type: functional;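 also: Dose-response selectivity test against caspase-3 for candidate inhibitors of sentrin-specific proteases (SENPs)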
T3 sequence (P42574 whole entry): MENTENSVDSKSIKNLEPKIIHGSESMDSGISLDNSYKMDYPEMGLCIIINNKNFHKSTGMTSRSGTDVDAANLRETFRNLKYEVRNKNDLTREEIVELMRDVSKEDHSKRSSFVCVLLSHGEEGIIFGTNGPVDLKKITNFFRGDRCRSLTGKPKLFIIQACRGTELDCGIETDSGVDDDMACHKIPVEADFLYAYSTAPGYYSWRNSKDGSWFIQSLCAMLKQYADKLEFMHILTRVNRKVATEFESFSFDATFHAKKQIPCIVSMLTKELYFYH

[6] = molecular target: T4, Sentrin-specific protease 7 (Homo sapiens, UniProt Q9BQF6); type: functional;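 also: Luminescence-based dose-response confirmation of ultra-high-throughput screening hits, measuring inhibition of SENP7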
T4 sequence (Q9BQF6 whole entry): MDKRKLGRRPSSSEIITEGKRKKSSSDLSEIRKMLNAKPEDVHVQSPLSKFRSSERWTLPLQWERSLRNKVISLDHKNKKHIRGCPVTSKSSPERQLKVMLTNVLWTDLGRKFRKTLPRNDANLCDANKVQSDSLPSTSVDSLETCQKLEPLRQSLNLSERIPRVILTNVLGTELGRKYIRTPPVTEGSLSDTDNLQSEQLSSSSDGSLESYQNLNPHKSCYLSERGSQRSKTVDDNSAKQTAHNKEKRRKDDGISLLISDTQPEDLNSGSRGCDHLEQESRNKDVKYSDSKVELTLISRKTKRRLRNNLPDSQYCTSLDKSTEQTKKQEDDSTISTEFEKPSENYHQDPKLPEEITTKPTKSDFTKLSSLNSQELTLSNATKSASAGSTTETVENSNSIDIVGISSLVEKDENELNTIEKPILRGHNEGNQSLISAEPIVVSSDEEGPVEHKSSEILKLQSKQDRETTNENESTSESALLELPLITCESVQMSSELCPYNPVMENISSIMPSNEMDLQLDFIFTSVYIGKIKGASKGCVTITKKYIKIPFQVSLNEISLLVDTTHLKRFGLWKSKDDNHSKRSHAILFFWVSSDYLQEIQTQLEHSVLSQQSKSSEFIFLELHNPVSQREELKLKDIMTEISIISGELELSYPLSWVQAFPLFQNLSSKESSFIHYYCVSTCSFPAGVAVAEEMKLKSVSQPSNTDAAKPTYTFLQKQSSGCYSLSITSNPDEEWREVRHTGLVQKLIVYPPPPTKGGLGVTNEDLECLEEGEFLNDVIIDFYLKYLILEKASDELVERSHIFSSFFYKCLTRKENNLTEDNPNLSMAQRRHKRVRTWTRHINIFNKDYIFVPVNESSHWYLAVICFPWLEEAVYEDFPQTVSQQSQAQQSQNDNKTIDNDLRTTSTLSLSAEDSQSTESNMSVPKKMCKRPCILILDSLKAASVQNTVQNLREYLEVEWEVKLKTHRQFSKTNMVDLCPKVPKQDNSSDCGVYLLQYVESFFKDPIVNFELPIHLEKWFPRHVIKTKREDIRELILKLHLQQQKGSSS

[7] = molecular target: T5, Sentrin-specific protease 6 (Homo sapiens, UniProt Q9GZR1); type: functional;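 also: Luminescence-based dose-response confirmatory assay of SENP6 inhibition, following up an ultra-high-throughput screen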
T5 sequence (Q9GZR1 whole entry): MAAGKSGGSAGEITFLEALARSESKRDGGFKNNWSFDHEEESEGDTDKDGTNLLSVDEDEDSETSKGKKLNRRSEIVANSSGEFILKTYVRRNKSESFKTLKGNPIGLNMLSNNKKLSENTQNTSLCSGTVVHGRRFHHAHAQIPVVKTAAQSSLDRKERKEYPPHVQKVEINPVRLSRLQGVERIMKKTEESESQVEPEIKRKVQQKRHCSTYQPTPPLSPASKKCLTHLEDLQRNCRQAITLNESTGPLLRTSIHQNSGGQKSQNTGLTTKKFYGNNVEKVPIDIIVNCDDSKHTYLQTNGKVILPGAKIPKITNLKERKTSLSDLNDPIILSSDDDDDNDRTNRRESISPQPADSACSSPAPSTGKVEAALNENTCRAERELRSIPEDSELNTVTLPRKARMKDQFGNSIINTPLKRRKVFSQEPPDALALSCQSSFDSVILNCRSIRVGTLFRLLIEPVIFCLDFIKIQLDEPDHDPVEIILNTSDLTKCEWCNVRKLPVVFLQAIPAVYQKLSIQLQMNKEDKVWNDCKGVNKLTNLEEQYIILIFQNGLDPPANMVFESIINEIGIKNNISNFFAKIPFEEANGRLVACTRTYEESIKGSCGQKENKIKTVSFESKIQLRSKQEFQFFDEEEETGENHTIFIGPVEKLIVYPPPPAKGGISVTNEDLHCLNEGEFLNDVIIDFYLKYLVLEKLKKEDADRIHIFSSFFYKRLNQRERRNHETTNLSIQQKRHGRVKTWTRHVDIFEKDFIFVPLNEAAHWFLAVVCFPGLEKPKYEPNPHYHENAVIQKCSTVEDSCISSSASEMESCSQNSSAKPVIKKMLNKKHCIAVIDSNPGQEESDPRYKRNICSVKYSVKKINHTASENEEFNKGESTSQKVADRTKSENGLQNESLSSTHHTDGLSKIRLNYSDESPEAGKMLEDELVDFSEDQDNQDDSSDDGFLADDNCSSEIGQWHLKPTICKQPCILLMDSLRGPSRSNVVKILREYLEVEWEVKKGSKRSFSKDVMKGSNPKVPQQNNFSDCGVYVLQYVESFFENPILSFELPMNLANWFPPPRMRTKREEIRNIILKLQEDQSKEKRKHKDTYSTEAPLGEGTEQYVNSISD

[8] = molecular target: T6, Sentrin-specific protease 8 (Homo sapiens, UniProt Q96LD8); type: functional;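 also: luminescence read-out of SENP8 inhibition, dose-response confirmation following an ultra-high-throughput screen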
T6 sequence (Q96LD8 whole entry): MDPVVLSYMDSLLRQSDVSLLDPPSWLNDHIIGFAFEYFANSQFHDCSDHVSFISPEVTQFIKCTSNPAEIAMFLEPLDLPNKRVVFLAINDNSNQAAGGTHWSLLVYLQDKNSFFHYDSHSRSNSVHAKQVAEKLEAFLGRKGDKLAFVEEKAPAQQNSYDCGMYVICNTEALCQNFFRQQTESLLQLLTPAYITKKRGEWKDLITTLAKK

[9] = molecular target: Botulinum neurotoxin type F (Clostridium botulinum, UniProt P30996); assay: High-throughput multiplex microsphere dose response for inhibitors of toxin protease, specifically Botulinum neurotoxin light chain F protease, compounds from Cherry Pick 02.; type: functional; details: read-out: EC50_MICROM
Sequence of Botulinum neurotoxin type F (P30996 1-436 limits assumed): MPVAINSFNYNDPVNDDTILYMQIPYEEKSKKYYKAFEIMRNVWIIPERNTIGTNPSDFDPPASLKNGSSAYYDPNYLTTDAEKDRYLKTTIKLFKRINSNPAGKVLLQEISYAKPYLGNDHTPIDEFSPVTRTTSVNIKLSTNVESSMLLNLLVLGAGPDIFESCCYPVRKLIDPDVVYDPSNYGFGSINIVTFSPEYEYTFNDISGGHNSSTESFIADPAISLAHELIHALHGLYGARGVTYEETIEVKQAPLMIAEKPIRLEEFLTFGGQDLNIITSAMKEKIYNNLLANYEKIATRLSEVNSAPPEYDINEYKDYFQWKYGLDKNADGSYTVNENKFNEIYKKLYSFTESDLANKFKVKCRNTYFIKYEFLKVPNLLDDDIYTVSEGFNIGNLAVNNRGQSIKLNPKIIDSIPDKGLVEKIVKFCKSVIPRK

[10] = molecular target: 1-phosphatidylinositol 4,5-bisphosphate phosphodiesterase gamma-1 (Homo sapiens, UniProt P19174); assay: Counterscreen for inhibitors of phospholipase C isozymes (PLC-B3): Fluorescence-based biochemical high throughput dose response assay to identify inhibitors of phospholipase C isozymes (PLC-gamma1).
Sequence of 1-phosphatidylinositol 4,5-bisphosphate phosphodiesterase gamma-1 (P19174 whole entry): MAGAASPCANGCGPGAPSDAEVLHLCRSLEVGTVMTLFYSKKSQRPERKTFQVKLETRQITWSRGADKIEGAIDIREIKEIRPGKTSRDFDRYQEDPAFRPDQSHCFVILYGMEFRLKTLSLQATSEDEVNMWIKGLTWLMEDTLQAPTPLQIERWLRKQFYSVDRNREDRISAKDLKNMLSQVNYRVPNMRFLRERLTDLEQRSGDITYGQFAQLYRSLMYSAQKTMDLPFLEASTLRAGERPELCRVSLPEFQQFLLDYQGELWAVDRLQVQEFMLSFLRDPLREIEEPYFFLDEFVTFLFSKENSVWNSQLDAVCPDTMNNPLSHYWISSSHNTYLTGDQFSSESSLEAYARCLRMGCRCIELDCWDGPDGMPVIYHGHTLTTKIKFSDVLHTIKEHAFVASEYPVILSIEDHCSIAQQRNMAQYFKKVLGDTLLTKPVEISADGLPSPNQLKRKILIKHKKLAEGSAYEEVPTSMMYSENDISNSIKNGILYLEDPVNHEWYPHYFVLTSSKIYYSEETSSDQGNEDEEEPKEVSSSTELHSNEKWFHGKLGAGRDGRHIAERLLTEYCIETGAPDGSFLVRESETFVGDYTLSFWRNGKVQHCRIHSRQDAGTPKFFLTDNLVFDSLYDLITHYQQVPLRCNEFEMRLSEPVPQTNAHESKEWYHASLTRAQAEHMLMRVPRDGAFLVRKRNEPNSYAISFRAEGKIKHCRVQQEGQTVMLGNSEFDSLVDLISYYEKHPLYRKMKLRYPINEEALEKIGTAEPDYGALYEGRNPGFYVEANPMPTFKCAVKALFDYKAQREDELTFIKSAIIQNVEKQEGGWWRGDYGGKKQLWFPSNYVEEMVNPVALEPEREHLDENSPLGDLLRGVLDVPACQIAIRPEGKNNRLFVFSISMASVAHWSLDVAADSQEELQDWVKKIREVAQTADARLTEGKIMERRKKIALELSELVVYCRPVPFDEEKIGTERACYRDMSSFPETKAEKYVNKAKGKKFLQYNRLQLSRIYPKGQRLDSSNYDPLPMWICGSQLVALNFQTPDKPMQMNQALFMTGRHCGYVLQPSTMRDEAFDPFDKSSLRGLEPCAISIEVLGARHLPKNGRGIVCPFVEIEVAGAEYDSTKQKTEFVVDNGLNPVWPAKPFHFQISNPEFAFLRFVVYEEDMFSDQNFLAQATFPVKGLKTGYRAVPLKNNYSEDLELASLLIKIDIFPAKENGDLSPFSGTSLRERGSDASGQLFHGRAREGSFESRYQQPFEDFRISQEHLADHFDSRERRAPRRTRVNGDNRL

[11] = molecular target: 1-phosphatidylinositol 4,5-bisphosphate phosphodiesterase beta-3 (Homo sapiens, UniProt Q01970); assay: Fluorescence-based biochemical high throughput dose response assay to identify inhibitors of phospholipase C isozymes (PLC-B3).
Sequence of 1-phosphatidylinositol 4,5-bisphosphate phosphodiesterase beta-3 (Q01970 whole entry): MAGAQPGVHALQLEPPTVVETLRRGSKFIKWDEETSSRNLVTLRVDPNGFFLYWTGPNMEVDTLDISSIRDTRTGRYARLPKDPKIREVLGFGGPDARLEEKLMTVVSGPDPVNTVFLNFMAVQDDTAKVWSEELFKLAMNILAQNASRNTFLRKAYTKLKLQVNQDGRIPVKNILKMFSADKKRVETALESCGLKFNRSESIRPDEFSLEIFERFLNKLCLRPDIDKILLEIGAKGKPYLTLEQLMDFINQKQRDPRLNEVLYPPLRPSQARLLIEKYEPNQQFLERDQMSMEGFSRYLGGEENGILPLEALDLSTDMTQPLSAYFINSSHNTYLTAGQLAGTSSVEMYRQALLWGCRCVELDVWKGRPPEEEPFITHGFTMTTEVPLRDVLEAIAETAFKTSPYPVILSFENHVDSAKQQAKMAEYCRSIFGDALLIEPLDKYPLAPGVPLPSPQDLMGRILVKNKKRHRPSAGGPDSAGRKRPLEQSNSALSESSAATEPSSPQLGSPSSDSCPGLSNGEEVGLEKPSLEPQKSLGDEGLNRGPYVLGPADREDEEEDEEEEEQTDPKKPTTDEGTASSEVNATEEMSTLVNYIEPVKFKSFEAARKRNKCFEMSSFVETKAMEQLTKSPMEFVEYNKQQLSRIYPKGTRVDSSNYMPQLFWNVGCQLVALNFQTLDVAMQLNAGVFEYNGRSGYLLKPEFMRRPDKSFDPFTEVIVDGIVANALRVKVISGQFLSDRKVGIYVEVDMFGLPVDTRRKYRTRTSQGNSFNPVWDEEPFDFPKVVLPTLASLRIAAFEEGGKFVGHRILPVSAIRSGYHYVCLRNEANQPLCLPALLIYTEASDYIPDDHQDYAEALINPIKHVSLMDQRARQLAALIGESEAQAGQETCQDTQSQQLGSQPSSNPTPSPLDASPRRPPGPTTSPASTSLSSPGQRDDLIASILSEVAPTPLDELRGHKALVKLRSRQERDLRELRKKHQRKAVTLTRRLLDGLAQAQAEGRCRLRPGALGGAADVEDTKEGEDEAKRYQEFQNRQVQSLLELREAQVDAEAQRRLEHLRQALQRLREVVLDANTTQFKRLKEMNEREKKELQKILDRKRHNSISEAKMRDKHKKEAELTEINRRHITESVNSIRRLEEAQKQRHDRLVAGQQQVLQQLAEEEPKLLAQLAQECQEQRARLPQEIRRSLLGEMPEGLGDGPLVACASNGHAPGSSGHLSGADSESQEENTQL

cells = details: A549

Sequence of Nonstructural protein 1 (Q194T2 whole entry): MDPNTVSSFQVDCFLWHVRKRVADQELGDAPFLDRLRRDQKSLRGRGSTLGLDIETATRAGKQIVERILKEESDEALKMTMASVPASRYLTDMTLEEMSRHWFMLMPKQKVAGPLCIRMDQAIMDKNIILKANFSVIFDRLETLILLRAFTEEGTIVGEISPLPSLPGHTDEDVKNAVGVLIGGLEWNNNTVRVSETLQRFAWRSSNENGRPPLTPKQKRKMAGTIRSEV

O=C(NC(=S)NNC(=O)c1ccccc1O)c1cccnc1
IC50 (Nonstructural protein 1): 7.11 µM (active)
IC50 (Albumin): > 94.1 µM (inactive)

Cn1c(O)c(N=NC(=O)c2ccco2)c2ccccc21
EC50 [1]: > 67.5 µM (inactive)

O=C(O)c1[nH]c2ccc(Br)cc2c1CCN1C(=O)c2cccc([N+](=O)[O-])c2C1=O
IC50 (Beta-lactamase [2]): > 59.6 µM (inactive)
IC50 (Beta-lactamase [3]): > 59.6 µM (inactive)
IC50 (Beta-lactamase [4]): > 59.6 µM (inactive)
AC50 [5]: 23.1 µM (active)

CCc1cccc2c(C(=O)COC(=O)c3ccccc3)c[nH]c12
IC50 (Caspase-3): 49.9 µM (active)
IC50 [6]: 4.08 µM (active)
IC50 [7]: > 100 µM (inactive)
IC50 [8]: > 100 µM (inactive)
EC50 [9]: > 20 µM (inactive)

COc1cccc(C(=O)Nc2ccc(-n3nncc3C(C)(C)C)cc2)c1
IC50 [10]: > 122 µM (inactive)
IC50 [11]: > 122 µM (inactive)

Fc1ccc(-c2nc3ccccn3c2NCc2ccc3c(c2)OCO3)cc1
AC50 (cells): > 52 µM (inactive)

— ChEMBL document CHEMBL1201862, “PubChem BioAssay data set” (2004)
